Patent US20130012432A1, “Peptides for Treatment of Obesity” (Novo Nordisk A/S, priority 2010, published 2013)
≈ marks a conversion by molar mass, not a printed value. Positions of bridges follow the written chain, without caps; N, C: chain ends. Non-standard residues stand in square brackets, D forms with d. Residues, ends and D or L forms follow the SMILES beside them. Groups on a side chain read outwards from the residue. *: point of attachment. Palmitoyl(16-(5-tetrazolyl)) = O=C(CCCCCCCCCCCCCCCc1nnn[nH]1)*; Lys(CH2CO2H)2 = N[C@@H](CCCCN(CC(=O)O)CC(=O)O)C(=O)O; X1 = O=C(O)CCCCCCCCCCCCCCCCC(=O)NCCOCCOCCN*; C16 diacid = O=C(O)CCCCCCCCCCCCCCC(=O)*; Orn = NCCC[C@H](N)C(=O)O; Dab = NCC[C@H](N)C(=O)O; AEEA = NCCOCCOCC(=O)O

Test: physchem
Experimental: From a stock solution in vehicle, either H2O or 10 mM phosphate, containing 1 mg (as weighed) compound per ml, 8-11 aliquots are withdrawn and pH-adjusted individually with HCl/NaOH, to cover the whole pH range.

[1] = pH 6.7, Solubility Conc., pH 6.7, vehicle 10 mM phosphate
[2] = pH 7.2, Solubility Conc., pH 7.2, vehicle 10 mM phosphate
[3] = pH 8.1, Solubility Conc., pH 8.1, vehicle 10 mM phosphate

SMILES: CC(=O)N[C@H]1CC(=O)NCCC[C@@H](C(=O)N2CCC[C@H]2C(=O)N2CCC[C@H]2C(=O)N[C@@H](CCCNC(=N)N)C(=O)N[C@@H](CC(=O)O)C(=O)N[C@@H](CCCCN(CC(=O)O)CC(=O)O)C(=O)N[C@@H](CCCCNC(=O)COCCOCCNC(=O)CCCCCCCCCCCCCCCc2nnn[nH]2)C(N)=O)NC(=O)[C@H](Cc2c[nH]c3ccccc23)NC(=O)[C@H](CCCNC(=N)N)NC(=O)[C@@H](Cc2ccccc2)NC(=O)[C@H](Cc2c[nH]cn2)NC1=O [Example 2, Ac-c[Asp-His-D-Phe-Arg-Trp-Orn]-Pro-Pro-Arg-Asp-Lys(biscarboxymethyl)-Lys[(2-{2-[16-(tetrazol-5-yl)hexadecanoylamino]ethoxy}ethoxy)acetyl]-NH2] (Ac-DH[dF]RW[Orn]PPRD[Lys(CH2CO2H)2]K([AEEA-Palmitoyl(16-(5-tetrazolyl))])-NH2; lactam 1-6)
- solubility (pH 5.8, Solubility Conc.): 21 µM (≈ 45.9 µg/mL)
- solubility (pH 6.4, Solubility Conc.): 26 µM (≈ 56.9 µg/mL)
- solubility (pH 7, Solubility Conc.): 67 µM (≈ 146 µg/mL)
- solubility (pH 7.2, Solubility Conc.): 172 µM (≈ 376 µg/mL)
- solubility (pH 7.3, Solubility Conc.): 267 µM (≈ 584 µg/mL)
- solubility (pH 7.4, Solubility Conc.): 465 µM (≈ 1020 µg/mL)
- solubility (pH 7.6, Solubility Conc.): 454 µM (≈ 993 µg/mL)
- solubility (pH 7.9, Solubility Conc.): 458 µM (≈ 1000 µg/mL)

SMILES: CC(=O)N[C@H]1CCNC(=O)C[C@@H](C(=O)N2CCC[C@H]2C(=O)N[C@@H](CO)C(=O)N[C@@H](CO)C(=O)N[C@@H](CO)C(=O)N[C@@H](CCCCN(CC(=O)O)CC(=O)O)C(=O)N[C@@H](CO)C(=O)N[C@@H](CO)C(=O)NCCOCCOCCNC(=O)CCCCCCCCCCCCCCCCC(=O)O)NC(=O)[C@H](Cc2c[nH]c3ccccc23)NC(=O)[C@H](CCCNC(=N)N)NC(=O)[C@@H](Cc2ccccc2)NC(=O)[C@H](Cc2c[nH]cn2)NC1=O [Example 3, Ac-c[Dab-His-D-Phe-Arg-Trp-Asp]-Pro-Ser-Ser-Ser-Lys(biscarboxymethyl)-Ser-Ser-NH(2-{2-[2-(17-carboxyheptadecanoylamino)ethoxy]ethoxy}ethyl)] (Ac-[Dab]H[dF]RWDPSSS[Lys(CH2CO2H)2]SS-X1; lactam 1-6)
- solubility (pH 4.9, Solubility Conc., pH 4.9, vehicle 10 mM phosphate): 24 µM (≈ 50.1 µg/mL)
- solubility (pH 5.6, Solubility Conc., pH 5.6, vehicle 10 mM phosphate): 32 µM (≈ 66.8 µg/mL)
- solubility (pH 6.1, Solubility Conc., pH 6.1, vehicle 10 mM phosphate): 54 µM (≈ 113 µg/mL)
- solubility [1]: 154 µM (≈ 321 µg/mL)
- solubility (pH 6.9, Solubility Conc., pH 6.9, vehicle 10 mM phosphate): 295 µM (≈ 616 µg/mL)
- solubility (pH 7.1, Solubility Conc., pH 7.1, vehicle 10 mM phosphate): 396 µM (≈ 827 µg/mL)
- solubility [2]: 401 µM (≈ 837 µg/mL)
- solubility (pH 7.4, Solubility Conc., pH 7.4, vehicle 10 mM phosphate): 396 µM (≈ 827 µg/mL)
- solubility (pH 7.7, Solubility Conc., pH 7.7, vehicle 10 mM phosphate): 345 µM (≈ 720 µg/mL)
- solubility [3]: 360 µM (≈ 751 µg/mL)

SMILES: CC(=O)N[C@H]1CCCNC(=O)CC[C@@H](C(=O)N2CCC[C@H]2C(=O)N2CCC[C@H]2C(=O)N[C@@H](CCCNC(=N)N)C(=O)N[C@@H](CC(=O)O)C(=O)N[C@@H](CCCCN(CC(=O)O)CC(=O)O)C(=O)N[C@@H](CCCCNC(=O)COCCOCCNC(=O)CCCCCCCCCCCCCCCc2nnn[nH]2)C(N)=O)NC(=O)[C@H](Cc2c[nH]c3ccccc23)NC(=O)[C@H](CCCNC(=N)N)NC(=O)[C@@H](Cc2ccccc2)NC(=O)[C@H](Cc2c[nH]cn2)NC1=O [Example 8, Ac-c[Orn-His-D-Phe-Arg-Trp-Glu]-Pro-Pro-Arg-Asp-Lys(biscarboxymethyl)-Lys[(2-{2-[16-(tetrazol-5-yl)hexadecanoylamino]ethoxy}ethoxy)acetyl]-NH2] (Ac-[Orn]H[dF]RWEPPRD[Lys(CH2CO2H)2]K([AEEA-Palmitoyl(16-(5-tetrazolyl))])-NH2; lactam 1-6)
- solubility (pH 6.5, Solubility Conc.): 35 µM (≈ 77 µg/mL)
- solubility (pH 6.8, Solubility Conc.): 44 µM (≈ 96.8 µg/mL)
- solubility (pH 7, Solubility Conc.): 91 µM (≈ 200 µg/mL)
- solubility (pH 7.2, Solubility Conc.): 268 µM (≈ 590 µg/mL)
- solubility (pH 7.3, Solubility Conc.): 482 µM (≈ 1060 µg/mL)
- solubility (pH 7.4, Solubility Conc.): 551 µM (≈ 1210 µg/mL)
- solubility (pH 7.5, Solubility Conc.): 538 µM (≈ 1180 µg/mL)
- solubility (pH 7.6, Solubility Conc.): 582 µM (≈ 1280 µg/mL)
- solubility (pH 7.8, Solubility Conc.): 556 µM (≈ 1220 µg/mL)

SMILES: CC(=O)N[C@H]1CCCNC(=O)C[C@@H](C(=O)N2CCC[C@H]2C(=O)N[C@@H](CO)C(=O)N[C@@H](CO)C(=O)N[C@@H](CO)C(=O)N[C@@H](CCCCN(CC(=O)O)CC(=O)O)C(=O)N[C@@H](CO)C(=O)N[C@@H](CO)C(=O)N[C@@H](CCCCNC(=O)COCCOCCNC(=O)CCCCCCCCCCCCCCC(=O)O)C(N)=O)NC(=O)[C@H](Cc2c[nH]c3ccccc23)NC(=O)[C@H](CCCNC(=N)N)NC(=O)[C@@H](Cc2ccccc2)NC(=O)[C@H](Cc2c[nH]cn2)NC1=O [Example 12, Ac-c[Orn-His-D-Phe-Arg-Trp-Asp]-Pro-Ser-Ser-Ser-Lys(biscarboxymethyl)-Ser-Ser-Lys({2-[2-(15-carboxypentadecanoylamino)ethoxy]ethoxy}acetyl)-NH2] (Ac-[Orn]H[dF]RWDPSSS[Lys(CH2CO2H)2]SSK([AEEA-C16 diacid])-NH2; lactam 1-6)
- solubility (pH 4.8, Solubility Conc., pH 4.8, vehicle 10 mM phosphate): 228 µM (≈ 505 µg/mL)
- solubility (pH 5.8, Solubility Conc., pH 5.8, vehicle 10 mM phosphate): 300 µM (≈ 665 µg/mL)
- solubility (pH 6.3, Solubility Conc., pH 6.3, vehicle 10 mM phosphate): 400 µM (≈ 886 µg/mL)
- solubility [1]: 431 µM (≈ 955 µg/mL)
- solubility (pH 7, Solubility Conc., pH 7.0, vehicle 10 mM phosphate): 426 µM (≈ 944 µg/mL)
- solubility [2]: 479 µM (≈ 1060 µg/mL)
- solubility (pH 7.5, Solubility Conc., pH 7.5, vehicle 10 mM phosphate): 405 µM (≈ 897 µg/mL)
- solubility (pH 7.8, Solubility Conc., pH 7.8, vehicle 10 mM phosphate): 480 µM (≈ 1060 µg/mL)
- solubility [3]: 439 µM (≈ 973 µg/mL)

SMILES: CC(=O)N[C@H]1CCC(=O)NCC[C@@H](C(=O)N2CCC[C@H]2C(=O)N2CCC[C@H]2C(=O)N[C@@H](CCCNC(=N)N)C(=O)N[C@@H](CC(=O)O)C(=O)N[C@@H](CCCCN(CC(=O)O)CC(=O)O)C(=O)N[C@@H](CCCCNC(=O)COCCOCCNC(=O)CCCCCCCCCCCCCCCc2nnn[nH]2)C(N)=O)NC(=O)[C@H](Cc2c[nH]c3ccccc23)NC(=O)[C@H](CCCNC(=N)N)NC(=O)[C@@H](Cc2ccccc2)NC(=O)[C@H](Cc2c[nH]cn2)NC1=O [Example 16, Ac-c[Glu-His-D-Phe-Arg-Trp-Dab]-Pro-Pro-Arg-Asp-Lys(biscarboxymethyl)-Lys[(2-{2-[16-(tetrazol-5-yl)hexadecanoylamino]ethoxy}ethoxy)acetyl]-NH2] (Ac-EH[dF]RW[Dab]PPRD[Lys(CH2CO2H)2]K([AEEA-Palmitoyl(16-(5-tetrazolyl))])-NH2; lactam 1-6)
- solubility (pH 6.7, Solubility Conc.): 42 µM (≈ 91.8 µg/mL)
- solubility (pH 7.1, Solubility Conc.): 96 µM (≈ 210 µg/mL)
- solubility (pH 7.3, Solubility Conc.): 191 µM (≈ 418 µg/mL)
- solubility (pH 7.4, Solubility Conc.): 262 µM (≈ 573 µg/mL)
- solubility (pH 7.5, Solubility Conc.): 357 µM (≈ 781 µg/mL)
- solubility (pH 7.6, Solubility Conc.): 431 µM (≈ 942 µg/mL)
- solubility (pH 7.8, Solubility Conc.): 409 µM (≈ 894 µg/mL)
- solubility (pH 8, Solubility Conc.): 447 µM (≈ 977 µg/mL)

SMILES: CC(=O)N[C@H]1CCCNC(=O)C[C@@H](C(=O)N2CCC[C@H]2C(=O)N2CCC[C@H]2C(=O)N[C@@H](CCCNC(=N)N)C(=O)N[C@@H](CC(=O)O)C(=O)N[C@@H](CCCCN(CC(=O)O)CC(=O)O)C(=O)N[C@@H](CCCCNC(=O)COCCOCCNC(=O)CCCCCCCCCCCCCCCc2nnn[nH]2)C(N)=O)NC(=O)[C@H](Cc2c[nH]c3ccccc23)NC(=O)[C@H](CCCNC(=N)N)NC(=O)[C@@H](Cc2ccccc2)NC(=O)[C@H](Cc2c[nH]cn2)NC1=O [Example 17, Ac-c[Orn-His-D-Phe-Arg-Trp-Asp]-Pro-Pro-Arg-Asp-Lys(biscarboxymethyl)-Lys[(2-{2-[16-(tetrazol-5-yl)hexadecanoylamino]ethoxy}ethoxy)acetyl]-NH2] (Ac-[Orn]H[dF]RWDPPRD[Lys(CH2CO2H)2]K([AEEA-Palmitoyl(16-(5-tetrazolyl))])-NH2; lactam 1-6)
- solubility (pH 5.8, Solubility Conc.): 25 µM (≈ 54.7 µg/mL)
- solubility (pH 6.7, Solubility Conc.): 45 µM (≈ 98.4 µg/mL)
- solubility (pH 6.9, Solubility Conc.): 75 µM (≈ 164 µg/mL)
- solubility (pH 7.2, Solubility Conc.): 297 µM (≈ 649 µg/mL)
- solubility (pH 7.3, Solubility Conc.): 428 µM (≈ 936 µg/mL)
- solubility (pH 7.4, Solubility Conc.): 490 µM (≈ 1070 µg/mL)
- solubility (pH 7.8, Solubility Conc.): 470 µM (≈ 1030 µg/mL)
- solubility (pH 8, Solubility Conc.): 487 µM (≈ 1060 µg/mL)
